Reference: ChEMBL document CHEMBL5137057, “Small Carbohydrate Derivatives as Potent Antibiofilm Agents” (J Med Chem, 2022)
≈ marks a conversion by molar mass, not a printed value. Values belong to the compound of their own block, whether it stands above or below them.

Tests used:
[1] = test system: Escherichia coli; experiment: Antibiofilm activity against Escherichia coli UTI89 at 2.5 ug/ml incubated for 72 hrs by crystal violet staining based assay relative to control; format: functional; details: dose 2.5 µg/ml
[2] = molecular target: T1, PA-I galactophilic lectin (Pseudomonas aeruginosa (strain ATCC 15692 / PAO1 / 1C / PRS 101 / LMG12228), UniProt Q05097); experiment: Inhibition of FITC-labelled Pseudomonas aeruginosa LecA
T1 sequence (Q05097 whole entry): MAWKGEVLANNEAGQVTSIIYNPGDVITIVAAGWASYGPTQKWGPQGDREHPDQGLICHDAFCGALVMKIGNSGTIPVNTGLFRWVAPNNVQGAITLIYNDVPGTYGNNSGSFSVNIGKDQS

[3] = molecular target: Protease LasA (Pseudomonas aeruginosa) (UniProt P14789); experiment: Inhibition of Pseudomonas aeruginosa PAO1 LasA protease at 64 to 256 ug/ml using azocasein as substrate incubated for 24 hrs by spectrophotometrical analysis relative to control; details: dose 64-256 µg/ml
Sequence of Protease LasA (Pseudomonas aeruginosa) (P14789 whole entry): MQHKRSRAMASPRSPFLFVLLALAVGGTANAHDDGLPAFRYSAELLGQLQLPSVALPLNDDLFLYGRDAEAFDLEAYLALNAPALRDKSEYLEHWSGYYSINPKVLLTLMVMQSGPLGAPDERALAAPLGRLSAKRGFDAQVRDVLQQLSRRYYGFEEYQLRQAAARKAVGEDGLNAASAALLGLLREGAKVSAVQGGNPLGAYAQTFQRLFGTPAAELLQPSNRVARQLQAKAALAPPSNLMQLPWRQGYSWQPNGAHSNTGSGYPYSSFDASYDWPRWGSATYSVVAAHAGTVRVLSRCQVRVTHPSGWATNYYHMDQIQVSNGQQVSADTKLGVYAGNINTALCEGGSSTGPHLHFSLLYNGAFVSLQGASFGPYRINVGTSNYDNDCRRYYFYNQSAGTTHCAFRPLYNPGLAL

[4] = Inhibition of AHL-mediated quorum sensing system in Pseudomonas aeruginosa PAO1 assessed as decrease in C4-HSL levels at 64 ug/ml by HPLC/MS analysis relative to control; details: dose 64.0 µg/ml
[5] = molecular target: Elastase (Pseudomonas aeruginosa (strain ATCC 15692 / PAO1 / 1C / PRS 101 / LMG12228)) (UniProt P14756); experiment: Inhibition of Pseudomonas aeruginosa PAO1 LasB elastase at 64 to 256 ug/ml incubated for 16 hrs by elastin Congo red (ECR) assay relative to control; details: dose 64-256 µg/ml
Sequence of Elastase (Pseudomonas aeruginosa (strain ATCC 15692 / PAO1 / 1C / PRS 101 / LMG12228)) (P14756 198-498 limits assumed): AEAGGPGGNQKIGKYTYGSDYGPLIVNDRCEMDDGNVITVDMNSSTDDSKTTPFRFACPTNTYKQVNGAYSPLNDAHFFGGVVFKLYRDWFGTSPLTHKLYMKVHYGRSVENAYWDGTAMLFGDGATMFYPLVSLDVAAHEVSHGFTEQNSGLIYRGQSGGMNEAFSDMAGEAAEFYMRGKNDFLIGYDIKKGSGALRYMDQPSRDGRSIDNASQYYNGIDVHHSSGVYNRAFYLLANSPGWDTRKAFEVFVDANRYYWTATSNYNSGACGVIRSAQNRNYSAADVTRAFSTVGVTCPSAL

[6] = molecular target: 3-(3-hydroxydecanoyloxy)decanoate synthase (Pseudomonas aeruginosa (strain ATCC 15692 / PAO1 / 1C / PRS 101 / LMG12228)) (UniProt Q51559); experiment: Inhibition of Pseudomonas aeruginosa PAO1 Rhamnolipid at 64 to 256 ug/ml by spectrophotometrical analysis relative to control; details: dose 64-256 µg/ml
[7] = test system: Pseudomonas aeruginosa; experiment: Antibiofilm activity against Pseudomonas aeruginosa PAO1 assessed as reduction in bacterial growth by crystal violet staining based assay; format: functional
[8] = test system: Burkholderia cepacia; experiment: In vivo antibacterial activity against Burkholderia cepacia LMG 16656 infected in BALB/C mouse assessed as reduction in bacterial load in lung at 2 mg/kg, INH administered for 24 to 48 hr post bacterial infection and measured after 3 days post compound treatment in presence of tobramycin relative to control; format: functional; set-up: scale not given: the % may be the effect or the level left; details: time 3 day
[9] = test system: Pseudomonas aeruginosa; experiment: Inhibition of Pseudomonas aeruginosa PAO1 Pyocyanin at 64 to 256 ug/ml by spectrophotometrical analysis relative to control; details: dose 64-256 µg/ml
[10] = molecular target: T2, Sortase A (Staphylococcus aureus, UniProt Q9S446); experiment: Inhibition of Staphylococcus aureus ATCC 25904 Sortase A protease expressed in Escherichia coli BL21 expression system using Dabcyl-QALPETGEE-Edans as substrate incubated for 30 mins by FRET assay
[11] = test system: Staphylococcus aureus; experiment: Prevention of Staphylococcus aureus ATCC 25904 adherence to fibrinogen at 64 ug/ml by crystal violet staining based analysis relative to control; format: functional; details: dose 64 µg/ml
[12] = Downregulation of c-di-GMP level in Pseudomonas aeruginosa PA14 planktonic cells harboring wspF gene mutation at 10 uM incubated for 24 hrs by HPLC method; format: functional
[13] = test system: Pseudomonas aeruginosa; experiment: Downregulation of c-di-GMP level in Pseudomonas aeruginosa PA14 harboring wspF gene mutation biofilm at 10 uM incubated for 24 hrs by HPLC method; format: functional
[14] = molecular target: Lectin A (Photorhabdus laumondii subsp. laumondii, UniProt Q7N561); experiment: Inhibition of Photorhabdus luminescens LecA expressed in Escherichia coli BL21(DE3) cells by fluorescence based analysis
Sequence of Lectin A (Q7N561 whole entry): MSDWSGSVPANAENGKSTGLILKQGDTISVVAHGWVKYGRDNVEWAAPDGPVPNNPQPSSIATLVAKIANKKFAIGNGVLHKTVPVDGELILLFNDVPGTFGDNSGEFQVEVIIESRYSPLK

[15] = Antibiofilm activity against Pseudomonas aeruginosa PA14 cocultured with Staphylococcus aureus ATCC 6538 assessed as inhibition of biofilm formation incubated for 24 hrs by crystal violet staining based microtiter plate method relative to control; format: functional; set-up: scale not given: the % may be the effect or the level left
[16] = molecular target: T1, PA-I galactophilic lectin; experiment: Inhibition of FITC-labelled Pseudomonas aeruginosa LecA incubated for 1 hr by fluorescence based analysis
[17] = molecular target: T2, Sortase A; experiment: Inhibition of Staphylococcus aureus ATCC 6538p Sortase A protease expressed in Escherichia coli BL21 expression system using Dabcyl-QALPETGEE-Edans as substrate incubated for 1 hr by FRET assay
[18] = molecular target: Sortase A (Streptococcus mutans, UniProt Q8CM62); experiment: Inhibition of Streptococcus mutans ATCC 2517 Sortase A protease expressed in Escherichia coli BL21 expression system using Abz-LPATG-Dap(Dnp)-NH2 as substrate incubated for 1 hrs by FRET assay
Sequence of Sortase A (Streptococcus mutans, UniProt Q8CM62) (Q8CM62 whole entry): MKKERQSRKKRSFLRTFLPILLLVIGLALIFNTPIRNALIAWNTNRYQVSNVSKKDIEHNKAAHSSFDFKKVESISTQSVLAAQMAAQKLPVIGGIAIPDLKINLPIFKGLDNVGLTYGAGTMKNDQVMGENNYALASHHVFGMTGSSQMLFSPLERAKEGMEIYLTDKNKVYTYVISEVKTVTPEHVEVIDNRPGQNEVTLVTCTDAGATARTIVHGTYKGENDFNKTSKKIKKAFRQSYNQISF

[19] = test system: Streptococcus mutans; experiment: Antibiofilm activity against Streptococcus mutans ATCC 2517 assessed as inhibition of biofilm formation at 128 ug/ml measured after 16 hrs by crystal violet staining based assay relative to control; format: functional; set-up: scale not given: the % may be the effect or the level left; details: dose 128 µg/ml
[20] = test system: Pseudomonas aeruginosa; experiment: Antibacterial activity against Pseudomonas aeruginosa PAO1 NCTC 10332 assessed as inhibition of biofilm formation incubated for 24 hrs by crystal violet staining based analysis; format: functional, organism-based; details: PAO1 NCTC 10332, 24 h
[21] = test system: Serratia marcescens; experiment: Antibacterial activity against Serratia marcescens ATCC 27117 assessed as inhibition of biofilm formation at 50 ug/ml incubated for 24 hrs by crystal violet staining based analysis relative to control; format: functional; set-up: scale not given: the % may be the effect or the level left; details: dose 50 µg/ml
[22] = test system: Pseudomonas aeruginosa; experiment: Antibacterial activity against Pseudomonas aeruginosa PAO1 NCTC 10332 assessed as inhibition of biofilm formation at 100 ug/ml incubated for 24 hrs by crystal violet staining based analysis relative to control; format: functional; set-up: scale not given: the % may be the effect or the level left; details: dose 100 µg/ml
[23] = test system: Pseudomonas aeruginosa; experiment: Antibacterial activity against Pseudomonas aeruginosa PAO1 NCTC 10332 assessed as inhibition of biofilm dispersion incubated for 24 hrs by crystal violet staining based analysis; format: functional, organism-based; details: PAO1 NCTC 10332, 24 h
[24] = test system: Pseudomonas aeruginosa; experiment: Antibiofilm activity against Pseudomonas aeruginosa ATCC 27853 at 0.5 mg/ml measured after 24 hrs by crystal violet staining based assay relative to control; format: functional

SMILES: CC(=O)O[C@@H]1[C@@H](O)[C@@H](O)[C@H](O[C@@H]2[C@@H](O)[C@H](OCCc3ccc(O)c(O)c3)O[C@H](CO)[C@H]2OC(=O)/C=C/c2ccc(O)c(O)c2)O[C@H]1C
- Activity [1]: 77%

- IC50 [2]: 220 nM
SMILES: OC[C@H]1O[C@@H](OCCCc2cn(CCn3cc([C@@H]4O[C@H](CO)[C@@H](n5cc([C@@H]6O[C@H](CO)[C@@H](n7cc(CCCO[C@@H]8O[C@H](CO)[C@H](O)[C@H](O)[C@H]8O)nn7)[C@H](O)[C@H]6O)nn5)[C@H](O)[C@H]4O)nn3)nn2)[C@H](O)[C@@H](O)[C@H]1O

- inhibition [3]: 48.6%
- inhibition [4]: 77.2%
- inhibition [5]: 77.1%
- inhibition [6]: 45.1%
- MIC [7]: > 1020 µg/mL
- inhibition [9]: 61.7%
SMILES: O=C(O)[C@H]1O[C@@H](Oc2cc3oc(-c4ccccc4)cc(=O)c3c(O)c2O)[C@H](O)[C@@H](O)[C@@H]1O [BAICALIN]
- Activity [8]: 99%

SMILES: C[C@H]1O[C@@H](Oc2c(-c3ccc(O)c(O)c3)oc3cc(O)cc(O)c3c2=O)[C@H](O)[C@H](O)[C@H]1O
- IC50 [10]: 71.4 µM
- Activity [11]: 51.9%

SMILES: OC[C@H]1O[C@H](OC[C@H]2O[C@H](O[C@]3(CO)O[C@H](CO)[C@@H](O)[C@@H]3O)[C@H](O)[C@@H](O)[C@@H]2O)[C@H](O)[C@@H](O)[C@H]1O [RAFFINOSE]
- Activity [12]: 47%
- Activity [13]: 59%
- IC50 [14]: 110 µM
- Activity [15]: 23%

- IC50 [16]: 28 nM
SMILES: OC[C@H]1O[C@@H](OCc2cn([C@H]3[C@H](O)[C@@H](O)[C@H](c4cn([C@H]5[C@H](O)[C@@H](O)[C@H](n6cc([C@@H]7O[C@H](CO)[C@@H](n8cc(CO[C@@H]9O[C@H](CO)[C@H](O)[C@H](O)[C@H]9O)nn8)[C@H](O)[C@H]7O)nn6)O[C@@H]5CO)nn4)O[C@@H]3CO)nn2)[C@H](O)[C@@H](O)[C@H]1O

- IC50 [17]: 31.6 µM
SMILES: CC[C@H](CCC(C)[C@H]1CC[C@H]2[C@@H]3CCC4C[C@@H](O[C@@H]5O[C@H](CO)[C@@H](O)[C@H](O)[C@H]5O)CC[C@]4(C)[C@H]3CC[C@]12C)C(C)C (some centres undefined)

- IC50 [18]: 16.7 µM
SMILES: C[C@H]1O[C@@H](O[C@H]2C(=O)c3c(O)cc(O)cc3O[C@@H]2c2ccc(O)c(O)c2)[C@H](O)[C@H](O)[C@H]1O
- Activity [19]: 70%

- IC50 [20]: 12.5 µg/mL (≈ 17.4 µM)
- IC50 [23]: 10 µg/mL (≈ 13.9 µM)
SMILES: CCCCCCC[C@H](CC(=O)N1CCOCC1)OC(=O)C[C@@H](CCCCCCC)O[C@@H]1O[C@@H](C)[C@H](O)[C@@H](O)[C@H]1O[C@@H]1O[C@@H](C)[C@H](O)[C@@H](O)[C@H]1O
- Activity [21]: >80%
- Activity [22]: 90%

SMILES: CC(=O)O[C@@H]1[C@H](O[C@H]2CC[C@H](C)[C@@]3(C)C[C@@H](/C(C)=C/CC=C(C)C)CC[C@H]23)OC[C@@H](OC(C)=O)[C@H]1OC(C)=O
- Activity [24]: 60%
